PMC5145767 (Neuron, 2016)
Where two headings read alike, the source gives them in different places.

Assays:
DGluR1A Y792T [1] = target: DGluR1A Y792T (Drosophila melanogaster, UniProt Q03445, Y792T); experiment: Receptor activity of DGluR1A Y792T mutant; type: cell-based; conditions: Figure S8C
DGluR1A Y792T [2] = experiment: Proteolysis protection assay of DGluR1A Y792T mutant; type: binding, Drosophila melanogaster; conditions: Figure S8B
DGluR1A [3] = target: T1, DGluR1A (Drosophila melanogaster, UniProt Q03445); experiment: DGluR1A coexpressed with Apis Stg1 in Xenopus oocytes; type: cell-based; conditions: for activation, % of the response to glutamate recorded in the same cell: agonists 3 mM
DKaiR1D [4] = target: T2, DKaiR1D (Drosophila melanogaster, UniProt Q9VDH5); type: cell-based; conditions: for activation of DKaiR1D: Xenopus oocytes, ligands of b17 all applied at 10 mM
[5] = system: DGluR1A ligand-binding domain; parameters: species or system Drosophila melanogaster; conditions: ligand 1 mM, trypsin 1:20
[6] = system: DKaiR1D ligand-binding domain; parameters: species or system Drosophila melanogaster; conditions: ligand 1 mM, trypsin 1:20, 60 min
DKaiR1D [7] = target: T2, DKaiR1D; type: cell-based
GluK2 = conditions: ref Plested and Mayer, 2007; cited from earlier work
DGluR1A [8] = target: T1, DGluR1A; conditions: 1992, cited from earlier work
DKaiR1D Q604R = DKaiR1D Q604R mutant responses in Xenopus oocytes; type: cell-based, Drosophila melanogaster; conditions: 3 μM toxin, 3 mM glutamate, -60 mV
[9] = 10 mM glutamate, decay fit by sum of two exponentials
[10] = NaCl, NaMeSO3 exchange experiment

T1 sequence (Q03445 28-991): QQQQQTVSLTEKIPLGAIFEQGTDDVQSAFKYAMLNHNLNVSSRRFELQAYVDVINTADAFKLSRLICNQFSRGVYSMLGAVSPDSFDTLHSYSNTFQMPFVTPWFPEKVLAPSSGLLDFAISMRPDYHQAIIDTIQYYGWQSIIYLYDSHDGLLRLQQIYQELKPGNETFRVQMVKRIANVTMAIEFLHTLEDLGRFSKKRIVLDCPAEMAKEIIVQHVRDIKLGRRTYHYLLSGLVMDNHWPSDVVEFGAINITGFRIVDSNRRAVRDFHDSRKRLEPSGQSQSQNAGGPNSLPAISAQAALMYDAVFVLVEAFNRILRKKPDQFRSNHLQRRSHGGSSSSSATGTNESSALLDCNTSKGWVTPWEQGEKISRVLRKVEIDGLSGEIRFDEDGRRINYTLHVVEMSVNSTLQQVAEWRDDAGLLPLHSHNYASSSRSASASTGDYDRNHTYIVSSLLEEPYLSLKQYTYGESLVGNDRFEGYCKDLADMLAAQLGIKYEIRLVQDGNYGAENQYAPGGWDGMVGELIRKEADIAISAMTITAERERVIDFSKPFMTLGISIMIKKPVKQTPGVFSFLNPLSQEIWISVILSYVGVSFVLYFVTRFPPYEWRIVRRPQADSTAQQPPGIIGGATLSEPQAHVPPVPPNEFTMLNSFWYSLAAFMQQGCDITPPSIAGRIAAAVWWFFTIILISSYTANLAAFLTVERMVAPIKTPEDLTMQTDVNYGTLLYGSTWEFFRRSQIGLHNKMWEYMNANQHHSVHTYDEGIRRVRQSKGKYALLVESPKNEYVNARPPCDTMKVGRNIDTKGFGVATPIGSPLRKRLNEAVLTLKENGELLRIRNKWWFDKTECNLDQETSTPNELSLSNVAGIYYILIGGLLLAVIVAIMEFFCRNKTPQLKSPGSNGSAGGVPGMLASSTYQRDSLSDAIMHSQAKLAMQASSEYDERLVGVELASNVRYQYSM
Chain of DGluR1A Y792T (Drosophila melanogaster, UniProt Q03445, Y792T) (Q03445 28-991 Y792T): as the sequence (Q03445 28-991) above, with Y765T counted along it

With `Cc1o[nH]c(=O)c1CC(N)C(=O)O` (centres unmarked) [AMPA] the receptor activation (DGluR1A Y792T [1]) was “but not AMPA, binds strongly and produces full receptor activation”, the “binding in proteolysis protection assay” value (DGluR1A Y792T [2]) was “but not AMPA, binds strongly” and the “activation, % of the response to glutamate recorded in the same cell” value (shortened to “activation, % of the response”) (DGluR1A [3]; -60 mV, Apis Stg1) was 40 ± 4%. For the same molecule, the “activation of DKaiR1D” value (DKaiR1D [4]; -60 mV) was “but not AMPA, aspartate or NMDA produced activation”, the “protection from digestion by trypsin” value [5] was “but not AMPA, NMDA, aspartate or AP5 were protective” and the “protection from digestion by trypsin” value [6] was “inactive”.

With `NC(CCCP(=O)(O)O)C(=O)O` (centres unmarked) [AP5] the “activation of DKaiR1D” value (DKaiR1D [4]; -60 mV) was “nor AP5 (Figure S5) produced DKaiR1D activation”, the “protection from digestion by trypsin” value [5] was “but not AMPA, NMDA, aspartate or AP5 were protective” and the “protection from digestion by trypsin” value [6] was “protective”.

For `N#Cc1cc2[nH]c(=O)c(=O)[nH]c2cc1[N+](=O)[O-]` [CNQX], the “block of responses to 10 mM glutamate” value (DKaiR1D [4]; antagonist 10 mM, -60 mV) was 34.3 ± 3.0%, the “protection from digestion by trypsin” value [5] was “protective” and the “protection from digestion by trypsin” value [6] was “weak protection”.

In the case of `N[C@H](CCCP(=O)(O)O)C(=O)O` [D-AP5, 2(R)-amino-5-phosphonopentanoic acid], the “block of responses to 1 mM glutamate” value (DKaiR1D [4]) is reported as 22.7 ± 0.8% and the “block of responses to 10 mM glutamate” value (DKaiR1D [4]) is reported as 16.6 ± 1.0%.

For `N[C@@H](CCCP(=O)(O)O)C(=O)O` [L-AP5], the “block of responses to 1 mM glutamate” value (DKaiR1D [4]; antagonist 10 mM, -60 mV) was 35.7 ± 1.4% and the “block of responses to 10 mM glutamate” value (DKaiR1D [4]; antagonist 10 mM, -60 mV) was 11.7 ± 1.2%.

In the case of `CN[C@H](CC(=O)O)C(=O)O` [NMDA], the “activation of DGluR1A” value (DGluR1A [3]; agonist 3 mM, -60 mV, Apis Stg1) is reported as “no activation”, the IC50 (DKaiR1D [4]) is reported as 900 µM and the “activation of DKaiR1D” value (DKaiR1D [4]; -60 mV) is reported as “but not AMPA, aspartate or NMDA produced activation”. For the same molecule, the “block of responses to 10 mM glutamate” value (DKaiR1D [4]; antagonist 10 mM, -60 mV) was 79.2 ± 2.2%, the “protection from digestion by trypsin” value [5] was “but not AMPA, NMDA, aspartate or AP5 were protective” and the “protection from digestion by trypsin” value [6] was “protective”.

For `N[C@@H](CC(=O)O)C(=O)O` [aspartate], the “activation, % of the response” value (DGluR1A [3]; -60 mV, Apis Stg1) was 28 ± 8%, the “activation of DKaiR1D” value (DKaiR1D [4]; -60 mV) was “but not AMPA, aspartate or NMDA produced activation” and the “protection from digestion by trypsin” value [6] was “to a lesser extent aspartate were also protective”.

With `N[C@@H](CCC(=O)O)C(=O)O` [glutamate] the deactivation rate constant (DKaiR1D [7]; 10 mM glutamate applied for 1 ms) was 2523 ± 218 s⁻¹, the “10–90% rise time” value (DKaiR1D [7]; 10 mM glutamate applied for 1 ms, outside-out patch) was 217 ± 6 μs and the desensitization kfast (DKaiR1D [7]; [9]) was 1317 ± 105 s⁻¹. For the same molecule, the desensitization kslow (DKaiR1D [7]; [9]) was 107 ± 22 s⁻¹, the “onset of desensitization kfast” value (DKaiR1D [7]; CsCl) was 1884 ± 99 s⁻¹ and the “onset of desensitization kslow” value (DKaiR1D [7]; CsCl) was 192 ± 28 s⁻¹. The “onset of desensitization kfast” value (DKaiR1D [7]; NaCl, CsCl exchange experiment) was 1504 ± 90 s⁻¹, the “onset of desensitization kslow” value (DKaiR1D [7]; NaCl, CsCl exchange experiment) was 165 ± 27 s⁻¹ and the “onset of desensitization kfast” value (DKaiR1D [7]; [10]) was 1970 ± 88 s⁻¹. The “onset of desensitization kslow” value (DKaiR1D [7]; [10]) was 190 ± 31 s⁻¹, the “onset of desensitization kfast” value (DKaiR1D [7]; NaMeSO3) was 1985 ± 68 s⁻¹ and the “onset of desensitization kslow” value (DKaiR1D [7]; NaMeSO3) was 236 ± 39 s⁻¹. For the same molecule, the “recovery from desensitization kslow” value (DKaiR1D [7]; twin pulse protocol, sum of two exponentials) was 9.9 s⁻¹, the EC50 (DGluR1A [3]) was 136 ± 8 µM and the EC50 (DKaiR1D [4]) was 10700 ± 500 µM. The “activation of DKaiR1D” value (DKaiR1D [4]; -60 mV) was “produced activation”, the “increase of rate of onset of desensitization on exchange of NaMeSO3 for NaCl” value (GluK2) was 7 fold and the “protection from digestion by trypsin” value [5] was “protective”. The “protection from digestion by trypsin” value [6] was “prevented digestion by trypsin”.

In the case of `C=C(C)[C@H]1CN[C@H](C(=O)O)[C@H]1CC(=O)O` [kainate], the EC50 (DGluR1A [8]; read-out: EC50 for activation, prior studies ref Ultsch et al.) is listed as 75 µM, the EC50 (DGluR1A [3]) is listed as 125 ± 4 µM and the “activation of DKaiR1D” value (DKaiR1D [4]; -60 mV) is listed as “produced activation”. For the same molecule, the “protection from digestion by trypsin” value [5] was “protective” and the “protection from digestion by trypsin” value [6] was “prevented digestion by trypsin”.

For `N[C@@H](Cn1oc(=O)[nH]c1=O)C(=O)O` [quisqualate, quisqualic acid], the receptor activation (DGluR1A Y792T [1]) was “produces full receptor activation”, the “binding in proteolysis protection assay” value (DGluR1A Y792T [2]) was “binds strongly” and the “activation, % of the response” value (DGluR1A [3]; -60 mV, Apis Stg1) was 41 ± 3%. The “amplitude of responses relative to those to glutamate” value (DKaiR1D [4]) was 0.78 ± 0.03, the “activation of DKaiR1D” value (DKaiR1D [4]; -60 mV) was “produced activation” and the “protection from digestion by trypsin” value [5] was “protective”. For the same molecule, the “protection from digestion by trypsin” value [6] was “prevented digestion by trypsin”.

In the case of philanthotoxin-433, the “block of Q604R mutant responses to glutamate” value (DKaiR1D Q604R) is given as “did not block”, the “inhibition of DGluR1A” value (DGluR1A [8]; ref Ultsch et al.) is given as “inhibition of DGluR1A by philanthotoxin” and the “block of wild type responses to glutamate by extracellular toxin” value (DKaiR1D [4]; 3 μM toxin, 3 mM glutamate, -60 mV, several minutes for full recovery) is given as “blocked”.
